# Measured values reported in the NIST ThermoML archive (doi:10.1021/je700236c).
# Where “and” joins values, the source holds several entries; their conditions need not be identical. Identical values can stand only once. Numbers after ± are expanded uncertainties.
# Settings: Gas, Buoyancy - hydrostatic balance with magnetic suspension - two sinkers
structure (smiles),measurement,setting,value
FC(F)C(F)(F)F [pentafluoroethane],mass density,"283.15 K, 207.2 kPa",10.978 ± 0.012 kg/m3 and 10.98 ± 0.012 kg/m3
same,mass density,"283.15 K, 442.7 kPa",24.675 ± 0.022 kg/m3 and 24.667 ± 0.022 kg/m3
same,mass density,"283.15 K, 617.4 kPa",35.904 ± 0.032 kg/m3 and 35.92 ± 0.032 kg/m3
same,mass density,"283.15 K, 710.7 kPa",42.388 ± 0.04 kg/m3
same,mass density,"283.15 K, 710.8 kPa",42.398 ± 0.04 kg/m3
same,mass density,"283.15 K, 758.3 kPa",45.855 ± 0.044 kg/m3 and 45.853 ± 0.044 kg/m3
same,mass density,"283.15 K, 811.7 kPa",49.881 ± 0.047 kg/m3 and 49.877 ± 0.047 kg/m3
same,mass density,"283.15 K, 828 kPa",51.141 ± 0.049 kg/m3 and 51.137 ± 0.049 kg/m3
same,mass density,"283.15 K, 857 kPa",53.429 ± 0.052 kg/m3 and 53.417 ± 0.052 kg/m3
same,mass density,"283.15 K, 872.2 kPa",54.64 ± 0.054 kg/m3
same,mass density,"283.15 K, 872.3 kPa",54.652 ± 0.054 kg/m3
same,mass density,"283.15 K, 880 kPa",55.27 ± 0.055 kg/m3 and 55.283 ± 0.055 kg/m3
same,mass density,"283.15 K, 889.1 kPa",56.021 ± 0.056 kg/m3
same,mass density,"283.15 K, 889.2 kPa",56.023 ± 0.056 kg/m3
same,mass density,"283.15 K, 901.7 kPa",57.048 ± 0.056 kg/m3 and 57.055 ± 0.057 kg/m3
same,mass density,"293.15 K, 205.9 kPa",10.502 ± 0.012 kg/m3
same,mass density,"293.15 K, 206 kPa",10.492 ± 0.012 kg/m3
same,mass density,"293.15 K, 413.1 kPa",21.853 ± 0.019 kg/m3
same,mass density,"293.15 K, 413.2 kPa",21.867 ± 0.019 kg/m3
same,mass density,"293.15 K, 605 kPa",33.264 ± 0.03 kg/m3 and 33.278 ± 0.03 kg/m3
same,mass density,"293.15 K, 799.7 kPa",45.976 ± 0.043 kg/m3
same,mass density,"293.15 K, 799.8 kPa",45.993 ± 0.043 kg/m3
same,mass density,"293.15 K, 901.5 kPa",53.187 ± 0.05 kg/m3 and 53.196 ± 0.05 kg/m3
same,mass density,"293.15 K, 1000.4 kPa",60.669 ± 0.06 kg/m3
same,mass density,"293.15 K, 1000.5 kPa",60.666 ± 0.06 kg/m3
same,mass density,"293.15 K, 1051.5 kPa",64.739 ± 0.065 kg/m3 and 64.718 ± 0.065 kg/m3
same,mass density,"293.15 K, 1101.2 kPa",68.839 ± 0.072 kg/m3
same,mass density,"293.15 K, 1101.3 kPa",68.86 ± 0.072 kg/m3
same,mass density,"293.15 K, 1133.2 kPa",71.588 ± 0.075 kg/m3 and 71.578 ± 0.075 kg/m3
same,mass density,"293.15 K, 1149.6 kPa",73.019 ± 0.077 kg/m3
same,mass density,"293.15 K, 1149.7 kPa",73.016 ± 0.077 kg/m3
same,mass density,"293.15 K, 1170.5 kPa",74.869 ± 0.08 kg/m3
same,mass density,"293.15 K, 1170.6 kPa",74.882 ± 0.08 kg/m3
same,mass density,"293.15 K, 1181.8 kPa",75.887 ± 0.081 kg/m3
same,mass density,"293.15 K, 1182 kPa",75.908 ± 0.081 kg/m3
same,mass density,"293.15 K, 1192.1 kPa",76.823 ± 0.082 kg/m3
same,mass density,"293.15 K, 1192.2 kPa",76.841 ± 0.082 kg/m3
same,mass density,"293.15 K, 1200.9 kPa",77.624 ± 0.082 kg/m3
same,mass density,"293.15 K, 1201 kPa",77.644 ± 0.083 kg/m3
same,mass density,"303.15 K, 225.1 kPa",11.079 ± 0.012 kg/m3 and 11.067 ± 0.012 kg/m3
same,mass density,"303.15 K, 411.9 kPa",20.874 ± 0.018 kg/m3 and 20.883 ± 0.018 kg/m3
same,mass density,"303.15 K, 602.3 kPa",31.549 ± 0.028 kg/m3 and 31.562 ± 0.028 kg/m3
same,mass density,"303.15 K, 800.1 kPa",43.526 ± 0.04 kg/m3 and 43.535 ± 0.04 kg/m3
same,mass density,"303.15 K, 999.2 kPa",56.733 ± 0.055 kg/m3
same,mass density,"303.15 K, 999.3 kPa",56.74 ± 0.055 kg/m3
same,mass density,"303.15 K, 1202.4 kPa",71.762 ± 0.073 kg/m3 and 71.771 ± 0.073 kg/m3
same,mass density,"303.15 K, 1299.2 kPa",79.657 ± 0.085 kg/m3
same,mass density,"303.15 K, 1299.4 kPa",79.674 ± 0.085 kg/m3
same,mass density,"303.15 K, 1406.6 kPa",89.099 ± 0.097 kg/m3
same,mass density,"303.15 K, 1406.7 kPa",89.124 ± 0.097 kg/m3
same,mass density,"303.15 K, 1450.2 kPa",93.212 ± 0.1 kg/m3 and 93.199 ± 0.1 kg/m3
same,mass density,"303.15 K, 1481.2 kPa",96.221 ± 0.11 kg/m3
same,mass density,"303.15 K, 1481.3 kPa",96.231 ± 0.11 kg/m3
same,mass density,"303.15 K, 1505.2 kPa",98.609 ± 0.12 kg/m3 and 98.623 ± 0.12 kg/m3
same,mass density,"303.15 K, 1520.5 kPa",100.175 ± 0.12 kg/m3
same,mass density,"303.15 K, 1520.6 kPa",100.195 ± 0.12 kg/m3
same,mass density,"303.15 K, 1537.3 kPa",101.933 ± 0.12 kg/m3
same,mass density,"303.15 K, 1537.4 kPa",101.917 ± 0.12 kg/m3
same,mass density,"303.15 K, 1565.1 kPa",104.879 ± 0.13 kg/m3
same,mass density,"303.15 K, 1565.8 kPa",104.956 ± 0.13 kg/m3
same,mass density,"313.15 K, 203.4 kPa",9.623 ± 0.012 kg/m3 and 9.618 ± 0.012 kg/m3
same,mass density,"313.15 K, 404.5 kPa",19.688 ± 0.017 kg/m3
same,mass density,"313.15 K, 404.6 kPa",19.685 ± 0.017 kg/m3
same,mass density,"313.15 K, 602.7 kPa",30.217 ± 0.026 kg/m3 and 30.212 ± 0.026 kg/m3
same,mass density,"313.15 K, 801.5 kPa",41.504 ± 0.038 kg/m3 and 41.496 ± 0.038 kg/m3
same,mass density,"313.15 K, 1002 kPa",53.773 ± 0.051 kg/m3 and 53.76 ± 0.051 kg/m3
same,mass density,"313.15 K, 1199.3 kPa",66.926 ± 0.066 kg/m3 and 66.915 ± 0.066 kg/m3
same,mass density,"313.15 K, 1398.2 kPa",81.578 ± 0.086 kg/m3
same,mass density,"313.15 K, 1398.3 kPa",81.585 ± 0.086 kg/m3
same,mass density,"313.15 K, 1604.4 kPa",98.7 ± 0.11 kg/m3
same,mass density,"313.15 K, 1604.5 kPa",98.71 ± 0.11 kg/m3
same,mass density,"313.15 K, 1705.9 kPa",108.153 ± 0.13 kg/m3 and 108.152 ± 0.13 kg/m3
same,mass density,"313.15 K, 1814.1 kPa",119.179 ± 0.15 kg/m3 and 119.18 ± 0.15 kg/m3
same,mass density,"313.15 K, 1900.7 kPa",128.938 ± 0.17 kg/m3 and 128.932 ± 0.17 kg/m3
same,mass density,"313.15 K, 1951.9 kPa",135.196 ± 0.19 kg/m3 and 135.193 ± 0.19 kg/m3
same,mass density,"313.15 K, 1976.7 kPa",138.379 ± 0.19 kg/m3 and 138.387 ± 0.19 kg/m3
same,mass density,"313.15 K, 1990.3 kPa",140.201 ± 0.2 kg/m3 and 140.173 ± 0.2 kg/m3
same,mass density,"313.15 K, 2001.8 kPa",141.759 ± 0.21 kg/m3
same,mass density,"313.15 K, 2002 kPa",141.763 ± 0.2 kg/m3
same,mass density,"323.15 K, 196.2 kPa",8.951 ± 0.012 kg/m3 and 8.953 ± 0.012 kg/m3
same,mass density,"323.15 K, 495.8 kPa",23.505 ± 0.02 kg/m3 and 23.498 ± 0.02 kg/m3
same,mass density,"323.15 K, 798.1 kPa",39.455 ± 0.035 kg/m3 and 39.458 ± 0.035 kg/m3
same,mass density,"323.15 K, 999.5 kPa",50.95 ± 0.047 kg/m3
same,mass density,"323.15 K, 999.6 kPa",50.954 ± 0.047 kg/m3
same,mass density,"323.15 K, 1199 kPa",63.156 ± 0.061 kg/m3 and 63.162 ± 0.061 kg/m3
same,mass density,"323.15 K, 1399 kPa",76.417 ± 0.077 kg/m3 and 76.411 ± 0.077 kg/m3
same,mass density,"323.15 K, 1599.7 kPa",90.933 ± 0.097 kg/m3 and 90.927 ± 0.097 kg/m3
same,mass density,"323.15 K, 1798.9 kPa",106.993 ± 0.12 kg/m3
same,mass density,"323.15 K, 1799 kPa",106.996 ± 0.12 kg/m3
same,mass density,"323.15 K, 2000.3 kPa",125.421 ± 0.16 kg/m3 and 125.435 ± 0.16 kg/m3
same,mass density,"323.15 K, 2100.4 kPa",135.708 ± 0.18 kg/m3 and 135.695 ± 0.18 kg/m3
same,mass density,"323.15 K, 2201.4 kPa",147.071 ± 0.21 kg/m3
same,mass density,"323.15 K, 2201.5 kPa",147.082 ± 0.21 kg/m3
same,mass density,"323.15 K, 2301.3 kPa",159.592 ± 0.23 kg/m3 and 159.61 ± 0.23 kg/m3
same,mass density,"323.15 K, 2350 kPa",166.311 ± 0.27 kg/m3
same,mass density,"323.15 K, 2350.1 kPa",166.298 ± 0.27 kg/m3
same,mass density,"323.15 K, 2400.2 kPa",173.712 ± 0.29 kg/m3 and 173.74 ± 0.29 kg/m3
same,mass density,"323.15 K, 2430 kPa",178.427 ± 0.32 kg/m3
same,mass density,"323.15 K, 2430.1 kPa",178.468 ± 0.32 kg/m3
same,mass density,"323.15 K, 2451.8 kPa",182.037 ± 0.33 kg/m3 and 182.009 ± 0.33 kg/m3
same,mass density,"323.15 K, 2469.3 kPa",185.047 ± 0.35 kg/m3 and 185.021 ± 0.34 kg/m3
